Reference: patent US11584734B2, “Tricyclic compounds as histone methyltransferase inhibitors” (GLOBAL BLOOD THERAPEUTICS, INC., priority 2017, dated 2023)
Counter-ions that a name gives are not always drawn.

These compounds were tested against T1, G9a (Homo sapiens, UniProt Q96KQ7) (assay: G9a AlphaLISA enzymatic activity assay). Conditions: negative log of IC50 in molar, 0.15 nM G9a, 15 uM S-adenosyl-methionine, 100 nM biotinylated histone 3 peptide (1-21).
T1 sequence (Q96KQ7 1-1210): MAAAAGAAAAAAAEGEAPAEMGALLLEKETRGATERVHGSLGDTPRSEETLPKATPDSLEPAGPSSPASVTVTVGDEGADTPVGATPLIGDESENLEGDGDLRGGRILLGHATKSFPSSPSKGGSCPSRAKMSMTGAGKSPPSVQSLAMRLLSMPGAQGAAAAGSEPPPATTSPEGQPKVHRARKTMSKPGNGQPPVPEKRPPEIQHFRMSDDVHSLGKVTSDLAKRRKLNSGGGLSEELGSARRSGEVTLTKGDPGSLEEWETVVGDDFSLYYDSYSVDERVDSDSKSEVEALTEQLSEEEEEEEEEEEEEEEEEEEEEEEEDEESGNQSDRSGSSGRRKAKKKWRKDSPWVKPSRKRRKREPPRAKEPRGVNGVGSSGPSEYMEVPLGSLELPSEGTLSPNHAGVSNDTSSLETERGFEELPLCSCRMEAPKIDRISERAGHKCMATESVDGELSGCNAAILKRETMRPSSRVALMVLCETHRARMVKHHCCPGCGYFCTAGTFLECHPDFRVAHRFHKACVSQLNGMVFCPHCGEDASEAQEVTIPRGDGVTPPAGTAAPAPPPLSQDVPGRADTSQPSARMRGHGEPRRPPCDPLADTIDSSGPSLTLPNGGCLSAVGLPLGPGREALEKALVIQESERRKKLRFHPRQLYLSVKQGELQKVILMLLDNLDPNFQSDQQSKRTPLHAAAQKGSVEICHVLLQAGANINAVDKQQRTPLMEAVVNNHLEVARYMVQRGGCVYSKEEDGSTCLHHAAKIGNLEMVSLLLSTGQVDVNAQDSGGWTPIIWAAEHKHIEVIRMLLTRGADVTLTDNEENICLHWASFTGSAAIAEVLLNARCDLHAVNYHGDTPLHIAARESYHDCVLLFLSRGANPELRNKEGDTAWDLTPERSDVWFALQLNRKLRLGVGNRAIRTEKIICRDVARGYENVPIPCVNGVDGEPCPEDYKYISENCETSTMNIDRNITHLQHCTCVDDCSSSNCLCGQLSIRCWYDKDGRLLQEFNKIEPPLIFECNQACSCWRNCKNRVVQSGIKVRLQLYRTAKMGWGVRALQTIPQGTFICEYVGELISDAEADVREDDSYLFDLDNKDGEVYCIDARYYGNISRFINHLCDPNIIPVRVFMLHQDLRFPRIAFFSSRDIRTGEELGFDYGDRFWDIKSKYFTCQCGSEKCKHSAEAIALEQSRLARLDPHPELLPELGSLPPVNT
Assay type: biochemical
From the text: The G9a AlphaLISA assay was used to detect the methyl modifications of a biotinylated histone H3 peptide by the compounds. These modifications are done by the histone methyl transferase activity of the G9a enzyme. The assay consists of reading a chemiluminescent signal at 615 nm; this signal is generated by a laser excitation at 680 nm that transfers a reactive singlet oxygen between the donor beads and acceptor beads. Donor beads are streptavidin conjugated and bind to the biotin on the peptide. Acceptor beads are conjugated with an antibody that recognizes the specific G9a methyl mark on the peptide. If there is a methyl mark on the peptide, the acceptor beads will bind to the peptide. Upon binding, the acceptor beads will be in close proximity (<200 nm) of the donor beads and when the donor beads are excited, the transfer of the oxygen can occur and a strong signal will be generated. If there is no methyl mark, the interaction between beads will not occur and signal will be at background levels.
For the assay, the following buffer was used to set up reactions: 50 mM Tris-HCl pH9, 50 mM NaCl, 0.01% Tween-20 and 1 mM DTT (added fresh prior to starting the reactions). […] The reaction is incubated at rt for 1 hour and subsequently quenched by the addition of the acceptor beads (anti-H3k9me2 AlphaLISA acceptor beads, PerkinElmer #AL117) at a final concentration of 20 ug/mL. The acceptor beads are incubated for 1 hour. After 1 hour, the donor beads are added at a final concentration of 20 ug/mL (Alpha Streptavidin donor beads, PerkinElmer #6760002). Donor beads are incubated for 0.5 hours. Both donor and acceptor beads are resuspended in AlphaLISA 5X Epigenetics Buffer 1 Kit (PerkinElmer #AL008) prior to addition to the reaction. All manipulations and incubations with the donor and acceptor beads are done in subdued light. Signal is detected in an EnVision plate reader in Alpha mode. See ACS Med Chem Lett. 2014; 5(2):205-9.
Percent inhibition was calculated for each compound dilution and the concentration that produced 50% inhibition was calculated. This value is presented as the pIC50, which is the negative log of the IC50 value in molar.
`Oc1cc2c(NCC3CC3)c3c(nc2cc1OCCCN1CCCC1)CCC3` [Example 2, dihydrochloride] was tested, and the IC50 was 158 nM.
For `COC[C@H](C)Nc1c2c(nc3cc(OCCCN4CCCC4)c(OC)cc13)CCC2` [Example 4], the IC50 was 6.17 nM.
Compound `CCNc1c2c(nc3cc(OCCCN4CCCC4)c(OC)cc13)CC(C)(C)C2` [Example 6, N-ethyl-7-methoxy-2,2-dimethyl-6-[3-(pyrrolidin-1-yl)propoxy]-1H,2H,3H-cyclopenta[b]quinolin-9-amine] has an IC50 of 38 nM.
`COc1cc2c(NC(C)C)c3c(nc2cc1OCCCN1CCCC1)CC(C)(C)C3` [Example 7, 7-methoxy-2,2-dimethyl-N-(propan-2-yl)-6-[3-(pyrrolidin-1-yl)propoxy]-1H,2H,3H-cyclopenta[b]quinolin-9-amine] showed an IC50 of 30.9 nM.
`COCCNc1c2c(nc3cc(OCCCN4CCCC4)c(OC)cc13)CC(C)(C)C2` [Example 8, 7-methoxy-N-(2-methoxyethyl)-2,2-dimethyl-6-[3-(pyrrolidin-1-yl)propoxy]-1H,2H,3H-cyclopenta[b]quinolin-9-amine] was tested, and the IC50 was 51.3 nM.
In the case of `COc1cc2c(NCc3ccn[nH]3)c3c(nc2cc1OCCCN1CCCC1)CCC3` [Example 9, 7-methoxy-N-[(1H-pyrazol-5-yl)methyl]-6-[3-(pyrrolidin-1-yl)propoxy]-1H,2H,3H-cyclopenta[b]quinolin-9-amine], the IC50 is reported as 12 nM.
Compound `CCOCCNc1c2c(nc3cc(OCCCN4CCCC4)c(OC)cc13)CCC2` [Example 10, N-(2-ethoxyethyl)-7-methoxy-6-[3-(pyrrolidin-1-yl)propoxy]-1H,2H,3H-cyclopenta[b]quinolin-9-amine] has an IC50 of 6.31 nM.
With `CCOCCCNc1c2c(nc3cc(OCCCN4CCCC4)c(OC)cc13)CCC2` [Example 11, N-(3-ethoxypropyl)-7-methoxy-6-[3-(pyrrolidin-1-yl)propoxy]-1H,2H,3H-cyclopenta[b]quinolin-9-amine] the IC50 was 17.4 nM.
`CCCOCCCNc1c2c(nc3cc(OCCCN4CCCC4)c(OC)cc13)CCC2` [Example 12, 7-methoxy-N-(3-propoxypropyl)-6-[3-(pyrrolidin-1-yl)propoxy]-1H,2H,3H-cyclopenta[b]quinolin-9-amine] showed an IC50 of 8.32 nM.
For `COc1cc2c(NCCOC(C)C)c3c(nc2cc1OCCCN1CCCC1)CCC3` [Example 13, 7-methoxy-N-[2-(propan-2-yloxy)ethyl]-6-[3-(pyrrolidin-1-yl)propoxy]-1H,2H,3H-cyclopenta[b]quinolin-9-amine], the IC50 was 31.6 nM.
Compound `COc1cc2c(NC[C@@H](C)OC)c3c(nc2cc1OCCCN1CCCC1)CCC3` [Example 14, 7-methoxy-N-[(2R)-2-methoxypropyl]-6-[3-(pyrrolidin-1-yl)propoxy]-1H,2H,3H-cyclopenta[b]quinolin-9-amine] has an IC50 of 26.3 nM.
For `COc1cc2c(NC[C@H](C)OC)c3c(nc2cc1OCCCN1CCCC1)CCC3` [Example 15, 7-methoxy-N-[(2S)-2-methoxypropyl]-6-[3-(pyrrolidin-1-yl)propoxy]-1H,2H,3H-cyclopenta[b]quinolin-9-amine], the IC50 was 22.4 nM.
With `CCCOCCNc1c2c(nc3cc(OCCCN4CCCC4)c(OC)cc13)CCC2` [Example 16, 7-methoxy-N-(2-propoxyethyl)-6-[3-(pyrrolidin-1-yl)propoxy]-1H,2H,3H-cyclopenta[b]quinolin-9-amine] the IC50 was 37.2 nM.
`COc1cc2c(NCCCOC(C)C)c3c(nc2cc1OCCCN1CCCC1)CCC3` [Example 17, 7-methoxy-N-[3-(propan-2-yloxy)propyl]-6-[3-(pyrrolidin-1-yl)propoxy]-1H,2H,3H-cyclopenta[b]quinolin-9-amine] was tested, and the IC50 was 19.5 nM.
In the case of `COc1cc2c(NC[C@H]3CCCO3)c3c(nc2cc1OCCCN1CCCC1)CCC3` [Example 18, 7-methoxy-N-{[(2R)-oxolan-2-yl]methyl}-6-[3-(pyrrolidin-1-yl)propoxy]-1H,2H,3H-cyclopenta[b]quinolin-9-amine], the IC50 is reported as 21.9 nM.
Compound `CNc1c2c(nc3cc(OCCCN4CCCC4)c(OC)cc13)CCCCC2` [Example 19, 2-methoxy-N-methyl-3-[3-(pyrrolidin-1-yl)propoxy]-6H,7H,8H,9H,10H-cyclohepta[b]quinolin-11-amine] has an IC50 of 7.94 nM.
`CNc1c2c(nc3cc(OCCCN4CCCC4)c(OC)cc13)CCC2(C)C` [Example 20, 7-methoxy-N,1,1-trimethyl-6-[3-(pyrrolidin-1-yl)propoxy]-1H,2H,3H-cyclopenta[b]quinolin-9-amine] gave an IC50 of 72.4 nM.
`CCNc1c2c(nc3cc(OCCCN4CCCC4)c(OC)cc13)CCC2(C)C` [Example 21, N-ethyl-7-methoxy-1,1-dimethyl-6-[3-(pyrrolidin-1-yl)propoxy]-1H,2H,3H-cyclopenta[b]quinolin-9-amine] showed an IC50 of 83.2 nM.
`COc1cc2c(NC(C)C)c3c(nc2cc1OCCCN1CCCC1)CCC3(C)C` [Example 22, 7-methoxy-1,1-dimethyl-N-(propan-2-yl)-6-[3-(pyrrolidin-1-yl)propoxy]-1H,2H,3H-cyclopenta[b]quinolin-9-amine] gave an IC50 of 174 nM.
`COCCNc1c2c(nc3cc(OCCCN4CCCC4)c(OC)cc13)CCC2(C)C` [Example 23, 7-methoxy-N-(2-methoxyethyl)-1,1-dimethyl-6-[3-(pyrrolidin-1-yl)propoxy]-1H,2H,3H-cyclopenta[b]quinolin-9-amine] was tested, and the IC50 was 468 nM.
For `CNc1c2c(nc3cc(OCCCN4CCCC4)c(OC)cc13)CC(C)(C)C2` [Example 24, 7-methoxy-N,2,2-trimethyl-6-[3-(pyrrolidin-1-yl)propoxy]-1H,2H,3H-cyclopenta[b]quinolin-9-amine], the IC50 was 24 nM.
Compound `COc1cc2c(NC[C@@H]3CCCO3)c3c(nc2cc1OCCCN1CCCC1)CCC3` [Example 25, 7-methoxy-N-{[(2S)-oxolan-2-yl]methyl}-6-[3-(pyrrolidin-1-yl)propoxy]-1H,2H,3H-cyclopenta[b]quinolin-9-amine] has an IC50 of 15.5 nM.
Compound `COc1cc2c(NC[C@@H]3COCCO3)c3c(nc2cc1OCCCN1CCCC1)CCC3` [Example 26, N-{[(2R)-1,4-dioxan-2-yl]methyl}-7-methoxy-6-[3-(pyrrolidin-1-yl)propoxy]-1H,2H,3H-cyclopenta[b]quinolin-9-amine] has an IC50 of 11.2 nM.
`COc1cc2c(NC[C@H]3COCCO3)c3c(nc2cc1OCCCN1CCCC1)CCC3` [Example 27, N-{[(2S)-1,4-dioxan-2-yl]methyl}-7-methoxy-6-[3-(pyrrolidin-1-yl)propoxy]-1H,2H,3H-cyclopenta[b]quinolin-9-amine] showed an IC50 of 12.6 nM.
With `COc1cc2c(NC[C@H]3CCOC3)c3c(nc2cc1OCCCN1CCCC1)CCC3` [Example 28, 7-methoxy-N-{[(3R)-oxolan-3-yl]methyl}-6-[3-(pyrrolidin-1-yl)propoxy]-1H,2H,3H-cyclopenta[b]quinolin-9-amine] the IC50 was 10 nM.
Compound `COc1cc2c(NC[C@@H]3CCOC3)c3c(nc2cc1OCCCN1CCCC1)CCC3` [Example 29, 7-methoxy-N-{[(3S)-oxolan-3-yl]methyl}-6-[3-(pyrrolidin-1-yl)propoxy]-1H,2H,3H-cyclopenta[b]quinolin-9-amine] has an IC50 of 6.03 nM.
